Test results taken from US7297702B2, “Contraception method using competitive progesterone antagonists and novel compounds useful therein” (Schering Aktiengesellschaft, priority 2004, dated 2007).
“And” between values parts separate entries of the source, which are not always exact repeats. Equal entries are not always repeated.

What was measured:
[1] = test system: adult, female bonnet monkeys (Macaca radiata); assay: Weekly s.c. Onapriston in bonnet monkeys: length of menstrual cycle and menstrual period; type: in vivo; conditions: for Length of MC, After-treatment Cycle / Length of MC, Treatment Cycle 1 / Length of MC, Treatment Cycle 2 / Length of MD, After-treatment Cycle / Length of MP, Treatment Cycle 1 / Length of MP, Treatment Cycle 2 / Length of MC, Pretreatment Cycle / Length of MP, Pretreatment Cycle: individual animals; for Length of MC, Pretreatment Cycle / Length of MP, Pretreatment Cycle: pretreatment cycle (baseline)
From the text: (§1) The above-described use of competitive progesterone antagonists is evidenced by tests performed with Onapriston [11β-(4-dimethylaminophenyl)-17α-hydroxy-17β-(3-hydroxy-propyl)-13α-methyl-4,9-gonadien-3-one; EP-A-0129499], a typically competitive progesterone antagonist, on adult, female bonnet monkeys (Macaca radiata).

[2] = test system: adult, female bonnet monkeys (Macaca radiata); assay: Weekly s.c. Onapriston in bonnet monkeys: estradiol and progesterone levels (RIA), folliculogenesis and ovulation; type: in vivo; conditions: 5 mg and 10 mg per animal s.c. weekly, 2 cycles
From the text: as §1

endometrium = assay: Weekly s.c. Onapriston in bonnet monkeys: endometrial histology (biopsy day 20 of second cycle); type: in vivo, Macaca radiata; conditions: both treatment groups (5 mg and 10 mg weekly s.c.), after 7 administrations
From the text: as §1

women = assay: Human Study 3: once-a-week oral onapristone; type: in vivo; conditions: once-a-week oral 0.25-50 mg over two cycles
Experimental: Duration of the study: Evaluation of three cycles: pre-treatment, treatment and post-treatment cycles. • Regimen: 18 daily oral administration of 20 mg (group 1), 10 mg (group 2) and 5 mg (group 3) onapristone starting on day 1 of the cycle. c) Evaluation: • RIA, LH, FSH, E2 and progesterone and cortisol during the pre-treatment, treatment and post-treatment cycles. • Evaluation of endometrial biopsies and collection of the uterine fluid (by prevical) on day 16 and day 23 of the treatment cycle (see appendix for details) • Occurrence of menstrual bleeding. Human Study 3: Effects of once-a-week administration of onapristone on ovulation, endometrial morphology and biochemistry a) Objective:
Groups of volunteers: […] (five treatment groups and a control group) of 8-10 women with ligated oviducts.
Duration of the study: Evaluation of four cycles: pre-treatment, two treatment and post-treatment cycles.
Once-a-week oral administration of 50 mg (group 1) 20 mg (group 2), 10 mg (group 3) 2 mg ([…]) and 0.25 mg (group 5), onapristone starting on day 1 of the cycle over the two cycles.
RIA, LH, FSH, E2 and progesterone during the pre-treatment, treatment and post-treatment cycles.
Evaluation of endometrial biopsies and collection of the uterine fluid on day 16 and day 23 of both treatment cycles (see appendix for details).
Occurrence of menstrual bleeding and cycle abnormalities: […]

humans = conditions: 50 mg, given during the late luteal phase; cited from earlier work
rat [3] = assay: Dissociation factor: ovulation inhibition test versus implantation inhibition in the rat; type: in vivo; conditions: for peripherally selective effectiveness (endometrium versus hypophysial-ovarian axis): endometrial effect very greatly pronounced, at the same dose at most only a slight central effect; for Dissociation factor: ratio of ovulation-inhibiting dose and implantation inhibiting dose, rat, peroral administration
From the text: Such competitive progesterone antagonists can also be designated as dissociated, since at a specific threshold dose, although changes of the endometrium are observed, ovulation (central effect) is not inhibited. The ratio of ovulation-inhibiting dose and implantation inhibiting dose (dissociation factor) (as determined in the rat after peroral administration) can be used as a measurement of the dissociation. This ratio varies from species to species but is at least about 30 or higher in a dissociated or competitive progesterone antagonist.
Such competitive progesterone antagonists can also be designated as dissociated, since at a specific threshold dose, changes of the endometrium are observed, but the ovulation (central effect) is not inhibited. The ratio of ovulation-inhibiting and implantation inhibiting (dissociation factor) doses can be used as a measurement for the dissociation. It varies depending on the species and is about. 30 or more for a dissociated competitive progesterone antagonist (in the rat after peroral administration) to be used according to the invention.
To determine the ovulation-inhibiting doses of competitive progesterone antagonists, the ovulation-inhibiting test described below is performed on the rat; the respective abortively effective doses follow from the known (e.g., U.S. Pat. No. 5,095,129) rat abortive test.
Ovulation Inhibition Test on the Rat
For detection of ovulation-inhibiting substances, the rat is well-suited insofar as it spontaneously ovulates and the cycle can easily be observed by means of vaginal smears. This makes it possible to control the course of the test also during the treatment phase.
Female rats weighing 190-210 g, pro dosi 6 animals.
The animals are kept in Macrolon cages in rooms with controlled exposure to light (10 hours of darkness: 14 hours of brightness), fed a standard diet (pelletized rat food) and tap water at will.
The test substances are dissolved in benzyl benzoate/castor oil (1+9 v/v) and the daily dose is administered in a volume of 0.2 ml s.c.
In the oral application, the test substance is suspended in a carrier liquid (85 mg of Myrj® in 100 ml of 0.9% w/v NaCl solution) and the daily dose is administered in a volume of 0.5 ml.
Two cycles are observed before the beginning of the test by means of vaginal smears. Only animals with a regular 4-day cycle are used in the test. The assignment to the treatment groups takes place at random. Beginning in the metestrus, the test substance is administered over 4 days (day 1-4) and the cycle is further controlled.
On day 4 (after the administration), animals, which have an estrus or metestrus at the time of the vaginal smear, are ovariectomized on one side under ether anesthesia. Crush preparations are prepared from the tubes and examined by microscope for the presence of egg cells. On day 5, all animals (intact and unilaterally ovariectomized) are killed with CO2 gas and the tubes are prepared and examined in the same way.
In the individual dosage groups, the percentage of animals in which the ovulation was inhibited is determined.

rat [4] = assay: Implantation inhibition (antinidatory effectiveness) in the rat; type: in vivo
[5] = Thymolysis test for antiglucocorticoidal effect; type: in vivo; conditions: thymolysis test (EP-A-0 283 428)
From the text: This is seen from the thymolysis test for antiglucocorticoidal effect (EP-A-0 283 428).

For `CN(C)c1ccc([C@H]2C[C@]3(C)[C@@H](CC[C@]3(O)CCCO)[C@@H]3CCC4=CC(=O)CCC4=C32)cc1` [Onapriston, 11β-(4-dimethylaminophenyl)-17α-hydroxy-17β-(3-hydroxy-propyl)-13α-methyl-4,9-gonadien-3-one], the “length of the cycle and the menstrual period relative to the control group” value ([1]; 5 mg and 10 mg per animal s.c. weekly, 2 cycles) was “not changed”, the “Length of MC, After-treatment Cycle” value ([1]; Group 2, 5 mg/week s.c.) was 27 day (2×) and 31 day and the “Length of MC, Treatment Cycle 1” value ([1]; Group 2, 5 mg/week s.c.) was 24 days and 27 days and 26 days. For the same molecule, the “Length of MC, Treatment Cycle 2” value ([1]; Group 2, 5 mg/week s.c.) was 39 days and 29 days and 26 days, the “Length of MD, After-treatment Cycle” value ([1]; Group 2, 5 mg/week s.c.) was 4 day (2×) and 3 day and the “Length of MP, Treatment Cycle 1” value ([1]; Group 2, 5 mg/week s.c.) was 2 day and 1 day (2×). For the same molecule, the “Length of MP, Treatment Cycle 2” value ([1]; Group 2, 5 mg/week s.c.) was 5 day and 1 day (2×), the “Length of MC, Pretreatment Cycle” value ([1]; Group 2, 5 mg/week s.c.) was 26 days and 28 days and 24 days and the “Length of MP, Pretreatment Cycle” value ([1]; Group 2, 5 mg/week s.c.) was 1 day (2×) and 3 day. The “Length of MC, After-treatment Cycle” value ([1]; Group 3, 10 mg/week s.c.) was 26 days and 48 days and 27 days, the “Length of MC, Treatment Cycle 1” value ([1]; Group 3, 10 mg/week s.c.) was 25 days and 26 days and 28 days and the “Length of MD, After-treatment Cycle” value ([1]; Group 3, 10 mg/week s.c.) was 4 days and 1 days and 3 days. For the same molecule, the “Length of MP, Treatment Cycle 1” value ([1]; Group 3, 10 mg/week s.c.) was 3 day and 1 day (2×), the “Length of MP, Treatment Cycle 2” value ([1]; Group 3, 10 mg/week s.c.) was 1 day (2×) and 2 day and the “Length of MC, Treatment Cycle 2” value ([1]; Group 3, 10 mg/week s.c., * = 2 ovulation cycles, bleeding slight after the first cycle) was 53* day and 25 day and 28 day. For the same molecule, the “Length of MC, Pretreatment Cycle” value ([1]; Group 3, 10 mg/week s.c.) was 26 days and 24 days and 30 days, the “Length of MP, Pretreatment Cycle” value ([1]; Group 3, 10 mg/week s.c.) was 4 days and 2 days and 3 days and the “folliculogenesis and ovulation (estradiol and progesterone levels)” value [2] was “occurred normally in all animals”. The “endometrial histology in contrast to control animals” value (endometrium) was “atrophied”, the contraception reliability (women) was “high contraception reliability” and the “control of the cycle compared to the control group” value (women) was “better control of the cycle”. For the same molecule, the tolerance (women) was “high tolerance” and the effect on menstruation (humans) was “induce premature menstruation”.
In the case of “11β,19-[4-(3-pyridinyl)-o-phenylene]-17β-hydroxy-17α-(3-hydroxyprop-1(Z)-enyl)-4-androsten-3-one [II]”, the “peripherally selective effectiveness (endometrium versus hypophysial-ovarian axis)” value (rat [3]) is reported as “surprisingly pronounced peripherally selective effectiveness”, the Dissociation factor (rat [3]) is reported as >30 and the “daily dose still completely implantation-inhibiting effective” value (rat [4]) is reported as 0.3 mg. The antiglucocorticoidal effect [5] was “not simultaneously antiglucocorticoidally effective”.
In the case of “11β,19-[4-(4-cyanophenyl)-o-phenylene]-17β-hydroxy-17α-(3-hydroxyprop-1(Z)-enyl)-4-androsten-3-one [I]”, the “peripherally selective effectiveness (endometrium versus hypophysial-ovarian axis)” value (rat [3]) is reported as “surprisingly pronounced peripherally selective effectiveness”, the Dissociation factor (rat [3]) is reported as >100 and the “daily dose still completely implantation-inhibiting effective” value (rat [4]) is reported as 0.1 mg. The antiglucocorticoidal effect [5] was “not simultaneously antiglucocorticoidally effective”.
In the case of `CC#C[C@]1(O)CC[C@H]2[C@@H]3CCC4=CC(=O)CCC4=C3[C@@H](c3ccc(N(C)C)cc3)C[C@@]21C` [RU 486, 11β-[4-N,N-(dimethylamino)phenyl]-17β-hydroxy-17α-propinyl-estra-4,9(10)-dien-3-one], the Dissociation factor (rat [3]) is reported as <10.
